According to PubChem BioAssay AID330 (DTP/NCI, 2004):
Where “and” joins values, the source holds several entries; their conditions need not be identical. Equal entries are not always repeated. Inconclusive results and toxic doses are left out. Rule for the calls: active = survival T/C of 150% or more; inactive = T/C below 125% in these data. Peptide text beside a SMILES is read from it. * marks the point of attachment. Cbz = O=C(OCc1ccccc1)*; OBn = c1ccc(CO*)cc1

System: P388 leukemia ip, CD2F1 mice, survival T/C
Experiment: NCI In Vivo Anticancer Drug Screen. Data for tumor model P388 Leukemia (intraperitoneal) in CD2F1 (CDF1) mice
Details: endpoint: median survival time, higher = longer survival
In short: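 Mice carrying the transplanted tumor received test compound or vehicle. Survival was recorded in each group, and the value is the treated-group measurement divided by that of the vehicle-treated control group.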

[1] = dose: 50.0 mg/kg/injection, schedule: Q01DX005 (ip), vehicle: Klucel (hydroxypropylcellulose) (HPC)
[2] = dose: 100.0 mg/kg/injection, schedule: Q01DX005 (ip), vehicle: Klucel (hydroxypropylcellulose) (HPC)
[3] = dose: 200.0 mg/kg/injection, schedule: Q01DX005 (ip), vehicle: Klucel (hydroxypropylcellulose) (HPC)
[4] = dose: 12.5 mg/kg/injection, schedule: Q01DX009 (ip), vehicle: saline
[5] = dose: 25.0 mg/kg/injection, schedule: Q01DX009 (ip), vehicle: saline
[6] = dose: 50.0 mg/kg/injection, schedule: Q01DX009 (ip), vehicle: Klucel (hydroxypropylcellulose) (HPC)
[7] = dose: 100.0 mg/kg/injection, schedule: Q01DX009 (ip), vehicle: Klucel (hydroxypropylcellulose) (HPC)
[8] = dose: 200.0 mg/kg/injection, schedule: Q01DX009 (ip), vehicle: Klucel (hydroxypropylcellulose) (HPC)
[9] = dose: 100.0 mg/kg/injection, schedule: Q04DX003 (ip), vehicle: saline with Tween-80
[10] = dose: 200.0 mg/kg/injection, schedule: Q04DX003 (ip), vehicle: saline with Tween-80
[11] = dose: 100.0 mg/kg/injection, schedule: Q04DX002 (ip), vehicle: saline with Tween-80
[12] = dose: 200.0 mg/kg/injection, schedule: Q04DX002 (ip), vehicle: saline with Tween-80
[13] = dose: 400.0 mg/kg/injection, schedule: Q04DX002 (ip), vehicle: saline with Tween-80
[14] = dose: 50.0 mg/kg/injection, schedule: Q01DX009 (ip), vehicle: saline
[15] = dose: 100.0 mg/kg/injection, schedule: Q01DX009 (ip), vehicle: saline
[16] = dose: 60.0 mg/kg/injection, schedule: Q01DX005 (ip), vehicle: Klucel (hydroxypropylcellulose) (HPC)
[17] = dose: 120.0 mg/kg/injection, schedule: Q01DX005 (ip), vehicle: Klucel (hydroxypropylcellulose) (HPC)
[18] = dose: 50.0 mg/kg/injection, schedule: Q01DX009 (ip), vehicle: saline with Tween-80

Measured: T/C

NCCCCC(NC(=O)OCc1ccccc1)C(=O)NC(CCCCN)C(=O)NC(CCCCN)C(=O)NC(Cc1c[nH]c2ccccc12)C(=O)OCc1ccccc1 (stereo unspecified) (Cbz-KKKW-OBn; configuration not given here)
inactive: [1] 100 % of control | [2] 96 % of control | [3] 100 % of control

O=S(=O)(c1cnccc1N1CCN(CCCl)CC1)N1CCCCC1
inactive: dose: 6.25 mg/kg/injection, schedule: Q01DX009 (ip), vehicle: saline 98 % of control and 100 % of control | [4] 100 % of control and 104 % of control and 105 % of control | [5] 100 % of control and 108 % of control and 109 % of control

CC12CC3(Br)CC(Br)(C1)CC(CC(=O)O)(C2)C3
inactive: [6] 103 % of control | [7] 112 % of control | [8] 112 % of control

CN1CC[N+](C)=C1c1nc2ccccc2n1C
inactive: dose: 12.5 mg/kg/injection, schedule: Q01DX009 (ip), vehicle: suspension in saline 105 % of control | dose: 25.0 mg/kg/injection, schedule: Q01DX009 (ip), vehicle: suspension in saline 117 % of control | dose: 50.0 mg/kg/injection, schedule: Q01DX009 (ip), vehicle: suspension in saline 118 % of control

CC(CN(C)C)Oc1ccccc1NC1=C(Cl)C(=O)C(Nc2ccccc2OC(C)CN(C)C)=C(Cl)C1=O (stereo unspecified)
inactive: dose: 10.0 mg/kg/injection, schedule: Q01DX009 (ip), vehicle: saline 108 % of control and 115 % of control | dose: 20.0 mg/kg/injection, schedule: Q01DX009 (ip), vehicle: saline 115 % of control and 118 % of control

CCc1nnc2c(C)c(C)nc(C)n12
inactive: [9] 94 % of control | [10] 100 % of control

COc1ccc2c(c1OC(=O)NCCCl)-c1cccc3c1C(C2)N(CCOC(=O)NCCCl)CC3 (stereo unspecified)
inactive: dose: 6.25 mg/kg/injection, schedule: Q04DX003 (ip), vehicle: saline + alcohol 109 % of control | dose: 12.5 mg/kg/injection, schedule: Q04DX003 (ip), vehicle: saline + alcohol 102 % of control | dose: 25.0 mg/kg/injection, schedule: Q04DX003 (ip), vehicle: saline + alcohol 96 % of control | dose: 50.0 mg/kg/injection, schedule: Q04DX003 (ip), vehicle: saline + alcohol 106 % of control | dose: 100.0 mg/kg/injection, schedule: Q04DX003 (ip), vehicle: saline + alcohol 98 % of control | dose: 200.0 mg/kg/injection, schedule: Q04DX003 (ip), vehicle: saline + alcohol 105 % of control

O=C1OC2=C(CCCCC2)C(N2CCCCC2)C12SCCCS2 (stereo unspecified)
inactive: dose: 66.0 mg/kg/injection, schedule: Q04DX003 (ip), vehicle: saline with Tween-80 100 % of control and 96 % of control | [9] 98 % of control and 91 % of control | dose: 150.0 mg/kg/injection, schedule: Q04DX003 (ip), vehicle: saline with Tween-80 110 % of control and 93 % of control | [10] 104 % of control | dose: 400.0 mg/kg/injection, schedule: Q04DX003 (ip), vehicle: saline with Tween-80 93 % of control

CN1C=CC2C(C#N)CC2C1=O (stereo unspecified)
inactive: [11] 101 % of control | [12] 110 % of control | [13] 110 % of control

Nc1nnc2nc(CC(=O)c3ccccc3)c(=O)[nH]n12
inactive: dose: 60.0 mg/kg/injection, schedule: Q01DX005 (ip), vehicle: saline 96 % of control | dose: 120.0 mg/kg/injection, schedule: Q01DX005 (ip), vehicle: saline 100 % of control | dose: 240.0 mg/kg/injection, schedule: Q01DX005 (ip), vehicle: saline 100 % of control

CC(=O)OC1Cc2c(cc3c4c(cccc24)N(C(C)=O)C3)N(C)C1 (stereo unspecified)
inactive: [11] 105 % of control | [12] 108 % of control | [13] 100 % of control

O=C(N/N=C/c1ccccc1Cl)c1cccnc1
inactive: dose: 60.0 mg/kg/injection, schedule: Q01DX005 (ip), vehicle: saline with Tween-80 90 % of control | dose: 120.0 mg/kg/injection, schedule: Q01DX005 (ip), vehicle: saline with Tween-80 93 % of control | dose: 240.0 mg/kg/injection, schedule: Q01DX005 (ip), vehicle: saline with Tween-80 89 % of control

Cc1c(-c2ccccc2)nc2sccn12
inactive: [5] 102 % of control | [14] 102 % of control | [15] 96 % of control

Cc1cc(C)c(SSc2nnnn2-c2ccccc2)c(C)c1
inactive: [6] 108 % of control | [7] 103 % of control | [8] 94 % of control

c1ccc(Sc2c(-c3ccccc3)c(-c3ccccc3)c3n2CCC3)cc1
inactive: [16] 86 % of control | [17] 86 % of control

O=C1/C(=C\c2ccccc2O)Cc2ccccc21
inactive: [1] 107 % of control | [2] 103 % of control | [3] 91 % of control

O=C1C(N=Nc2ccc(Cl)cc2)Sc2nc3ccccc3n21 (stereo unspecified)
inactive: [16] 92 % of control | [17] 90 % of control

COc1cc(C)c2sc3ccccc3c(=O)c2c1NCCN(C)C
inactive: [4] 100 % of control and 104 % of control and 108 % of control | [5] 99 % of control and 108 % of control and 110 % of control | [18] 96 % of control | [15] 111 % of control and 112 % of control

CN1C(=O)c2ccccc2N(C)C12CCN(Cc1ccccc1)CC2
inactive: dose: 50.0 mg/kg/injection, schedule: Q01DX005 (ip), vehicle: distilled water + alcohol 103 % of control | dose: 100.0 mg/kg/injection, schedule: Q01DX005 (ip), vehicle: distilled water + alcohol 100 % of control | dose: 200.0 mg/kg/injection, schedule: Q01DX005 (ip), vehicle: distilled water + alcohol 97 % of control

CCOC(=O)CNC1CC(O[C@H]2C[C@](O)(C(C)=O)Cc3c(O)c4c(c(O)c32)C(=O)c2c(OC)cccc2C4=O)OC(C)C1O (stereo partly specified)
inactive: dose: 25.0 mg/kg/injection, schedule: Q04DX003 (ip), vehicle: Klucel (hydroxypropylcellulose) (HPC) 103 % of control | dose: 50.0 mg/kg/injection, schedule: Q04DX003 (ip), vehicle: Klucel (hydroxypropylcellulose) (HPC) 110 % of control | dose: 100.0 mg/kg/injection, schedule: Q04DX003 (ip), vehicle: Klucel (hydroxypropylcellulose) (HPC) 109 % of control | dose: 200.0 mg/kg/injection, schedule: Q04DX003 (ip), vehicle: Klucel (hydroxypropylcellulose) (HPC) 100 % of control

CC(=O)c1nc(-c2ccccc2)[nH]c1C
inactive: dose: 25.0 mg/kg/injection, schedule: Q01DX009 (ip), vehicle: saline with Tween-80 101 % of control | [18] 104 % of control | dose: 100.0 mg/kg/injection, schedule: Q01DX009 (ip), vehicle: saline with Tween-80 105 % of control | [9] 99 % of control | [10] 90 % of control

C=CC1(C)CCC2C(=CCC3C2(C)CC(O)C(O)C3(C)COC2OC(CO)C(O)C(O)C2O)C1 (stereo unspecified)
inactive: dose: 1.5 mg/kg/injection, schedule: Q01DX009 (ip), vehicle: Klucel (hydroxypropylcellulose) (HPC) 103 % of control | dose: 3.0 mg/kg/injection, schedule: Q01DX009 (ip), vehicle: Klucel (hydroxypropylcellulose) (HPC) 106 % of control | dose: 6.0 mg/kg/injection, schedule: Q01DX009 (ip), vehicle: Klucel (hydroxypropylcellulose) (HPC) 116 % of control | dose: 12.0 mg/kg/injection, schedule: Q01DX009 (ip), vehicle: Klucel (hydroxypropylcellulose) (HPC) 108 % of control | [4] 99 % of control | dose: 24.0 mg/kg/injection, schedule: Q01DX009 (ip), vehicle: Klucel (hydroxypropylcellulose) (HPC) 108 % of control | [5] 100 % of control | [14] 98 % of control | [15] 93 % of control

N#C/C(=N\O)C(N)=O
inactive: [5] 92 % of control | [14] 105 % of control | [15] 105 % of control | dose: 200.0 mg/kg/injection, schedule: Q01DX009 (ip), vehicle: saline 98 % of control
